Source: US20130254944A1, “Herbicide Tolerant Soybeans and Methods of Use” (PIONEER HI BRED INTERNATIONAL INC, priority 2012, published 2013)

How the values were obtained:
Assay type in all cases: in vivo
[1] = test system: soybean having both the Als1 and Als2 mutations; experiment: Greenhouse postemergence test of ALS-inhibiting herbicides and isobole analysis, soybean with Als1 and Als2 mutations; conditions: for Avg response (% phytotoxicity), Trait Als1 + Als2: Table 2; for EC10, Als1 + Als2: rate of herbicide estimated to cause 10% phytotoxic response, loglogistic fit
Summary of the method: (§1)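 Greenhouse-grown soybean lines (16 hr photoperiod) at V2 stage got postemergence sprays of eleven ALS-inhibiting actives from five chemical families. Rates were 0.5×–8× label rate at 30 gallons/acre in water with 0.25% nonionic surfactant. Phytotoxicity was scored visually (0–100) 14 days after application, with EC50/EC10 from log-logistic fits feeding isobole analysis (1:1 Als1:Als2 assumption).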

wild type soybean = experiment: Greenhouse postemergence test of ALS-inhibiting herbicides, wild type soybean
Summary of the method: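 Wild-type soybean (also lines carrying Als1, Als2 or both mutations) grown in greenhouse, 16 hr photoperiod, sprayed postemergence at V2 with ALS-inhibiting herbicides at 0.5×, 1×, 2×, 4× and 8× label rate in water with 0.25% nonionic surfactant, 30 gallons/acre. Phytotoxicity scored visually 14 days after application, 0–100 scale (0 none, 100 plant death).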

[2] = test system: soybean having the Als2 mutation; experiment: Greenhouse postemergence test of ALS-inhibiting herbicides, soybean with Als2 mutation; conditions: for Avg response (% phytotoxicity), Trait Als2: Table 2; for EC10, Als2: rate of herbicide estimated to cause 10% phytotoxic response, loglogistic fit
Summary of the method: as §1

[3] = test system: soybean having the Als1 mutation; experiment: Greenhouse postemergence test of ALS-inhibiting herbicides, soybean with Als1 mutation; conditions: for Avg response (% phytotoxicity), Trait Als1: Table 2; for EC10, Als1: rate of herbicide estimated to cause 10% phytotoxic response, loglogistic fit
Summary of the method: as §1

[4] = 8.75 g ai/ha postemergence at V2, scored 14 days after application
[5] = 17.5 g ai/ha postemergence at V2, scored 14 days after application
[6] = 35 g ai/ha postemergence at V2, scored 14 days after application
[7] = 70 g ai/ha postemergence at V2, scored 14 days after application
[8] = 140 g ai/ha postemergence at V2, scored 14 days after application
[9] = 280 g ai/ha postemergence at V2, scored 14 days after application

Structure (SMILES): CCS(=O)(=O)c1cccnc1S(=O)(=O)NC(=O)Nc1nc(OC)cc(OC)n1 [Rimsulfuron]
- Soybean response (percent phytotoxicity), Als1 + Als2 [1, 4]: 0%
- Avg response (% phytotoxicity), Trait Als1 + Als2 ([1]; 8.75 g ai/ha): 0%
- Soybean response (percent phytotoxicity), Als1 + Als2 [1, 5]: 0%
- Avg response (% phytotoxicity), Trait Als1 + Als2 ([1]; 17.5 g ai/ha): 0%
- Soybean response (percent phytotoxicity), Als1 + Als2 [1, 6]: 0%
- Avg response (% phytotoxicity), Trait Als1 + Als2 ([1]; 35 g ai/ha): 0%
- Soybean response (percent phytotoxicity), Als1 + Als2 [1, 7]: 10%
- Avg response (% phytotoxicity), Trait Als1 + Als2 ([1]; 70 g ai/ha): 10%
- Soybean response (percent phytotoxicity), Als1 + Als2 [1, 8]: 10%
- Avg response (% phytotoxicity), Trait Als1 + Als2 ([1]; 140 g ai/ha): 10%
- EC10, Als1 + Als2 [1]: 123.22 g ai/ha
- tolerance (in words), soybean containing both the Als1 and the Als2 genes ([1]; the higher doses): extremely tolerant
- Soybean response (percent phytotoxicity), Wild type (wild type soybean; [4]): 10%
- Soybean response (percent phytotoxicity), Wild type (wild type soybean; [5]): 35%
- Soybean response (percent phytotoxicity), Wild type (wild type soybean; [6]): 85%
- Soybean response (percent phytotoxicity), Wild type (wild type soybean; [7]): 95%
- Soybean response (percent phytotoxicity), Wild type (wild type soybean; [8]): 98%
- Soybean response (percent phytotoxicity), Als2 [2, 4]: 0%
- Avg response (% phytotoxicity), Trait Als2 ([2]; 8.75 g ai/ha): 0%
- Soybean response (percent phytotoxicity), Als2 [2, 5]: 0%
- Avg response (% phytotoxicity), Trait Als2 ([2]; 17.5 g ai/ha): 0%
- Soybean response (percent phytotoxicity), Als2 [2, 6]: 20%
- Avg response (% phytotoxicity), Trait Als2 ([2]; 35 g ai/ha): 20%
- Soybean response (percent phytotoxicity), Als2 [2, 7]: 60%
- Avg response (% phytotoxicity), Trait Als2 ([2]; 70 g ai/ha): 60%
- Soybean response (percent phytotoxicity), Als2 [2, 8]: 80%
- Avg response (% phytotoxicity), Trait Als2 ([2]; 140 g ai/ha): 80%
- EC10, Als2 [2]: 23.88 g ai/ha
- phytotoxicity (in words), soybean containing only the Als2 gene ([2]; the higher doses): substantial phytotoxicity
- Soybean response (percent phytotoxicity), Als1 [3, 4]: 0%
- Avg response (% phytotoxicity), Trait Als1 ([3]; 8.75 g ai/ha): 0%
- Soybean response (percent phytotoxicity), Als1 [3, 5]: 0%
- Avg response (% phytotoxicity), Trait Als1 ([3]; 17.5 g ai/ha): 0%
- Soybean response (percent phytotoxicity), Als1 [3, 6]: 20%
- Avg response (% phytotoxicity), Trait Als1 ([3]; 35 g ai/ha): 20%
- Soybean response (percent phytotoxicity), Als1 [3, 7]: 40%
- Avg response (% phytotoxicity), Trait Als1 ([3]; 70 g ai/ha): 40%
- Soybean response (percent phytotoxicity), Als1 [3, 8]: 80%
- Avg response (% phytotoxicity), Trait Als1 ([3]; 140 g ai/ha): 80%
- EC10, Als1 [3]: 28.61 g ai/ha
- phytotoxicity (in words), soybean containing only the Als1 gene ([3]; the higher doses): substantial phytotoxicity

Structure (SMILES): COc1cc(OC)nc(NC(=O)NS(=O)(=O)c2ncccc2C(=O)N(C)C)n1 [Nicosulfuron]
- Soybean response (percent phytotoxicity), Als1 + Als2 [1, 5]: 0%
- Avg response (% phytotoxicity), Trait Als1 + Als2 ([1]; 17.5 g ai/ha): 0%
- Soybean response (percent phytotoxicity), Als1 + Als2 [1, 6]: 0%
- Avg response (% phytotoxicity), Trait Als1 + Als2 ([1]; 35 g ai/ha): 0%
- Soybean response (percent phytotoxicity), Als1 + Als2 [1, 7]: 0%
- Avg response (% phytotoxicity), Trait Als1 + Als2 ([1]; 70 g ai/ha): 0%
- Soybean response (percent phytotoxicity), Als1 + Als2 [1, 8]: 0%
- Avg response (% phytotoxicity), Trait Als1 + Als2 ([1]; 140 g ai/ha): 0%
- Soybean response (percent phytotoxicity), Als1 + Als2 [1, 9]: 5%
- Avg response (% phytotoxicity), Trait Als1 + Als2 ([1]; 280 g ai/ha): 5%
- EC10, Als1 + Als2 [1]: >280 g ai/ha
- Soybean response (percent phytotoxicity), Wild type (wild type soybean; [5]): 0%
- Soybean response (percent phytotoxicity), Wild type (wild type soybean; [6]): 10%
- Soybean response (percent phytotoxicity), Wild type (wild type soybean; [7]): 20%
- Soybean response (percent phytotoxicity), Wild type (wild type soybean; [8]): 45%
- Soybean response (percent phytotoxicity), Wild type (wild type soybean; [9]): 65%
- Soybean response (percent phytotoxicity), Als2 [2, 5]: 0%
- Avg response (% phytotoxicity), Trait Als2 ([2]; 17.5 g ai/ha): 0%
- Soybean response (percent phytotoxicity), Als2 [2, 6]: 0%
- Avg response (% phytotoxicity), Trait Als2 ([2]; 35 g ai/ha): 0%
- Soybean response (percent phytotoxicity), Als2 [2, 7]: 0%
- Avg response (% phytotoxicity), Trait Als2 ([2]; 70 g ai/ha): 0%
- Soybean response (percent phytotoxicity), Als2 [2, 8]: 20%
- Avg response (% phytotoxicity), Trait Als2 ([2]; 140 g ai/ha): 20%
- Soybean response (percent phytotoxicity), Als2 [2, 9]: 35%
- Avg response (% phytotoxicity), Trait Als2 ([2]; 280 g ai/ha): 35%
- EC10, Als2 [2]: 105.60 g ai/ha
- Soybean response (percent phytotoxicity), Als1 [3, 5]: 0%
- Avg response (% phytotoxicity), Trait Als1 ([3]; 17.5 g ai/ha): 0%
- Soybean response (percent phytotoxicity), Als1 [3, 6]: 0%
- Avg response (% phytotoxicity), Trait Als1 ([3]; 35 g ai/ha): 0%
- Soybean response (percent phytotoxicity), Als1 [3, 7]: 0%
- Avg response (% phytotoxicity), Trait Als1 ([3]; 70 g ai/ha): 0%
- Soybean response (percent phytotoxicity), Als1 [3, 8]: 5%
- Avg response (% phytotoxicity), Trait Als1 ([3]; 140 g ai/ha): 5%
- Soybean response (percent phytotoxicity), Als1 [3, 9]: 25%
- Avg response (% phytotoxicity), Trait Als1 ([3]; 280 g ai/ha): 25%
- EC10, Als1 [3]: 187.47 g ai/ha
